Measurements taken from patent US10752900B2, “Oligonucleotides for modulating gene expression and uses thereof” (BIOGENERA S.P.A., priority 2012, dated 2020).

Columns and labels:
MYCN gene = assay: QT-PCR, MYCN mRNA in RH30 cells; type: cell-based, human; settings: Table 6, PNA
Protocol: For the purpose of assessing the ability of the oligonucleotides of the present invention to modulate the expression of the target genes, their ability to reduce the quantity of messenger RNA was analyzed using the Real-Time PCR technique. For this purpose, use was made of 24-well plates, which were seeded with 5.0×10^4 cells with 0.3 ml of OPTI-MEM (GIBCO BRL) medium, 4% FBS and 2 mM L-glutammine (experiments in triplicate) per well. The cells were incubated for 24 hours at 37° C., in an atmosphere containing 5% CO2 to permit adherence to the base of the wells. Each oligonucleotide analyzed, except for the PNA oligonucleotides, was incubated beforehand with 2 μl of Lipofectamine 2000 (Invitrogen), with 0.3 mL of serum-free OPTI-MEM (GIBCO BRL) medium. For each well, the oligonucleotides were analyzed at the following final concentrations: • the antisense oligonucleotides siRNA and siRNA gapmer (i.e. the oligonucleotides containing one or more monomers of chemically modified nucleic acids at the 3' or 5' end, while in the central portion they have monomers of nucleic acids that have not been modified or have been modified at the level of the phosphodiester bond as a phosphorothioate bond) were used at 200 nM; • the antisense oligonucleotides containing phosphorothioate DNA monomers, the RNA antigene oligonucleotides (agRNA) and the oligonucleotides containing DNA monomers and LNA monomers were used at 10 μM; • the morpholino oligonucleotides were used at a concentration of 1 μM, and • the PNA oligonucleotides were administered at a concentration of 1 μM. The cells were treated with the oligonucleotides, adding FBS up to 4% 6 hours after administration of the same. After 24 hours the total RNA was extracted from each well and purified using the RNeasy Mini Kit (QIAGEN). Assays were performed on 8 cell lines obtained from 5 different human tumours which are correlated with MYCN expression, i.e.: • as a neuroblastoma model use was made of the cell lines Kelly, IMR-32 (where the MYCN gene is amplified and superexpressed) and SKNBE2c and LAN1 (where the MYCN gene is amplified and superexpressed and the p53 gene is mutated); • as a rabdomiosarcoma model use was made of the cell line RH30, where the MYCN gene is amplified and superexpressed; • as a Wilms' tumour model use was made of the cell line WiT49, where the MYCN gene is amplified and superexpressed; • as a retinoblastoma model use was made of the cell line Y79, where the MYCN gene is amplified and superexpressed; and • as a model of small cell lung cancer use was made of the cell line H69 where the MYCN gene is amplified and superexpressed. As a control, use was made of the same cell lines as listed above treated with sterile water instead of oligonucleotides. Each RNA sample was quantified (in duplicate) using a NanoDrop ND-1000 spectrophotometer (NanoDrop Technologies). The first strand of cDNA was produced using the cDNA Synthesis Kit for RT-PCR (Roche). For the cDNA synthesis reaction a total of 1 μg of RNA was used. For the real-time PCR, 10 ng of cDNA in a final volume of 20 μl was used with SYBR Green Master Mix 2× (Applied Biosystems) (3 identical experiments were conducted in triplicate). Two housekeeping genes were used as positive controls: GAPDH and beta-actin (ACTB). The conditions of the QT-PCR reaction were: 10 min at 95° C., 20 sec at 95° C., and 30 sec at 60° C., for 50 cycles. The PNAs having SEQ ID NO: 1-12 were also tested on different cell lines which overexpress MYCN (Kelly, SKNBE2c, RH30, […] 1 and H69). The results are shown in Table 6 and confirm the selectivity and specificity of the inhibition effect of the PNAs on the product of protein translation of the MYCN gene. Chimeric oligonucleotides comprising DNA monomers and LNA monomers and having the MYCN gene as their target were tested in vitro on alveolar rabdomyosarcoma cells (RH30). […]

WERI-Rb1 = assay: Cellular proliferation assay (ATP-Lite), WERI-Rb1 cells; type: cell-based; settings: Table 6
Protocol: For the purpose of assessing the gene modulation ability of the oligonucleotides of the present invention, the effect of their administration on cell viability was determined. For this purpose 5×10^3 cells per well were seeded into 96-well cell culture plates (experiments conducted in triplicate) with 100 μl of OPTI-MEM (GIBCO BRL) medium containing 4% FBS and 2 mM of L-glutammine. The PNA oligonucleotides were administered at different concentrations (1 μM-2.5 μM-5 μM-10 μM) in order to observe a dose-effect relationship. The viability of the treated cells was determined at 48, 72, 96 and 168 hours after treatment. Cell viability was assessed by means of an ATP-Lite assay (Luminescence ATP Detection Assay System, PerkinElmer) and is reported as the ratio between the average signal of the treated wells compared to the average value of the wells of untreated control cells. The cells were processed following the instructions provided with the kit. The assays were performed on the same cell lines used to determine the levels of the MYCN gene messenger and listed in the paragraph: Treatments with Oligonucleotides-QT-PCR. The PNAs having SEQ ID NO: 1-12 were also tested on different cell lines which overexpress MYCN (Kelly, SKNBE2c, RH30, […] 1 and H69). The results are shown in Table 6 and confirm the selectivity and specificity of the inhibition effect of the PNAs on the product of protein translation of the MYCN gene.

[1] = test system: human and mouse neuroblastoma tumour cell lines (SMS-KAN, LAN 1, IMR-32, SMS-KCN, Kelly, NHO2A, SKNBE2c); type: cell-based

| Substance | RH30 % mRNA (MYCN gene) [%] | WERI-Rb1 % cell prol. (WERI-Rb1) [%] | effect in terms of inhibiting cell proliferation in combination with chemotherapeutic agents [1] |
| --- | --- | --- | --- |
| SEQ ID NO: 1: PNA ATGCCGGGCATGATCT against MYCN; subject of patent EP 1618195, control sequence used for comparison (all peptide nucleic acid (PNA)) [reference compound] | 39 | 82 | synergic effect |
| SEQ ID NO: 10: PNA antigene oligonucleotide CGGCCGCGGGCCGCCA directed against MYCN (PNA backbone, chemistry not fully specified) | 29 | 85 |  |
| SEQ ID NO: 12: PNA antigene oligonucleotide TGTCTGGACGCGCTGG directed against MYCN (all peptide nucleic acid (PNA)) | 32 | 84 |  |
| SEQ ID NO: 6: PNA antigene oligonucleotide TGGACGCGCTGGGTGG directed against MYCN (PNA backbone, chemistry not fully specified) | 56 | 80 |  |
| SEQ ID NO: 8: PNA antigene oligonucleotide GTCTGGACGCGCTGGG directed against MYCN (all peptide nucleic acid (PNA)) | 58 | 78 |  |
| SEQ ID NO: 2: PNA antigene oligonucleotide GGGTGGATGCGGGGGG directed against MYCN (PNA backbone, chemistry not fully specified) | 74 | 79 |  |
| SEQ ID NO: 7: PNA antigene oligonucleotide CGCGCTGGGTGGATGC directed against MYCN (all peptide nucleic acid (PNA)) | 55 | 79 |  |
| SEQ ID NO: 3: PNA antigene oligonucleotide GATGCGGGGGGCTCCT directed against MYCN (PNA backbone, chemistry not fully specified) | 65 | 78 |  |
| SEQ ID NO: 11: PNA antigene oligonucleotide GGGAACTGTGTTGGAG directed against MYCN (PNA backbone, chemistry not fully specified) | 31 | 84 |  |
| SEQ ID NO: 4: PNA antigene oligonucleotide GTCGGCGGGAGGTAAG directed against MYCN (PNA backbone, chemistry not fully specified) | 57 | 79 |  |
| SEQ ID NO: 9: PNA antigene oligonucleotide CCCTGCAGTCGGCGGG directed against MYCN (all peptide nucleic acid (PNA)) | 50 | 79 |  |
| SEQ ID NO: 5: PNA antigene oligonucleotide GCTGGGTGGATGCGGG directed against MYCN (PNA backbone, chemistry not fully specified) | 56 | 80 |  |
